Converted amounts (≈) assume the structure as drawn. Where only a bound is given, the exact number is not on record here.

The subject of the first series is IL-2 production. Description: Inhibition of IL-2 production in PHA-activated Jurkat cells (ELISA). Type of series: cell-based. The conditions noted are these: Homo sapiens, 20 h, PHA 2.5 μg/mL, 20 hours at 37° C., IL-2 ELISA. As to the method: Jurkat cells were placed in a 96 well plate (0.5 million cells per well in 1% FBS medium) then a test compound of this invention was added at different concentrations. After 10 minutes, the cells were activated with PHA (final concentration 2.5 μg/mL) and incubated for 20 hours at 37° C. under CO2. The final volume was 200 μL. Following incubation, the cells were centrifuged and the supernatants collected and stored at −70° C. prior to assaying for IL-2 production. A commercial ELISA kit (IL-2 Eli-pair, Diaclone Research, Besancon, France) was used to detect production of IL-2, from which dose response curves were obtained. The IC50 value was calculated as the concentration at which 50% of maximum IL-2 production after stimulation was inhibited versus a non-stimulation control.
On the technique in general: ELISA stands for enzyme-linked immunosorbent assay.
As usually defined, the IC50 is the concentration at which inhibition is half-maximal. Low readings indicate higher potency, high ones lower potency. Compound `Cc1cncnc1C(=O)Nc1ccc(C2=C(C=O)CCN(c3nccs3)C2)cc1` [Compound 1, N-(4-(4-formyl-1-(thiazol-2-yl)-1,2,5,6-tetrahydropyridin-3-yl)phenyl)-5-methylpyrimidine-4-carboxamide] had an IC50 of 75 to 150 nM. Same read-out and setting: the same measure for `CC1=C(c2cnc(NC(=O)c3c(F)cccc3F)cn2)CN(c2nnnn2C)CC1` [Compound 3, 2,6-difluoro-N-(5-(4-methyl-1-(1-methyl-1H-tetrazol-5-yl)-1,2,5,6-tetrahydropyridin-3-yl)pyrazin-2-yl)benzamide]: above 1000 nM; for `CC1=C(c2ccc(NC(=O)c3c(F)cccc3C(F)(F)F)cc2)CN(c2nccs2)CC1` [Compound 8, 2-fluoro-N-(4-(4-methyl-1-(thiazol-2-yl)-1,2,5,6-tetrahydropyridin-3-yl)phenyl)-6-(trifluoromethyl)benzamide]: 75 to 150 nM; for `CC1=C(c2ccc(NC(=O)c3ccccc3C(F)(F)F)cc2)CN(c2nccs2)CC1` [Compound 9, N-(4-(4-methyl-1-(thiazol-2-yl)-1,2,5,6-tetrahydropyridin-3-yl)phenyl)-2-(trifluoromethyl)benzamide]: 35 to 75 nM. Still for that read-out and setting: the same measure for `CSc1ncccc1C(=O)Nc1ccc(C2=C(C)CCN(c3nccs3)C2)cc1` [Compound 14, N-(4-(4-methyl-1-(thiazol-2-yl)-1,2,5,6-tetrahydropyridin-3-yl)phenyl)-2-(methylthio)nicotinamide]: 150 to 1000 nM; for `CC1=C(c2ccc(NC(=O)C3c4ccccc4-c4ccccc43)cc2)CN(c2nccs2)CC1` [Compound 17, N-(4-(4-methyl-1-(thiazol-2-yl)-1,2,5,6-tetrahydropyridin-3-yl)phenyl)-9H-fluorene-9-carboxamide]: 150 to 1000 nM; for `O=C(Nc1ccc(-c2cc(-c3nccs3)ccc2Cl)cc1)c1c(O)cccc1F` [Compound 18, N-(2′-chloro-5′-(thiazol-2-yl)biphenyl-4-yl)-2-fluoro-6-hydroxybenzamide]: 75 to 150 nM. For the compound `CC1=C(c2ccc(NC(=O)c3c(F)cccc3F)nc2)CN(c2nccn2C)CC1` [Compound 22, 2,6-difluoro-N-(5-(4-methyl-1-(1-methyl-1H-imidazol-2-yl)-1,2,5,6-tetrahydropyridin-3-yl)pyridin-2-yl)benzamide], the IC50 is above 1000 nM.

Tested on in another series: not listed separately
Description: Solubility in simulated gastric fluids. Type of series: physicochemical.
Settings: not given
From the text:
Solubility in Simulated Gastric Fluids
As usually defined, the solubility is the concentration that dissolves in the medium under given conditions. Read a low solubility as a poorly soluble substance. `CC1=C(c2ccc(NC(=O)c3ccc(F)cc3F)cc2)CN(c2nccs2)CC1.Cl` [Compound 19, 2,4-difluoro-N-(4-(4-methyl-1-(thiazol-2-yl)-1,2,5,6-tetrahydropyridin-3-yl)phenyl)benzamide hydrochloride] came in with a solubility of 150 µM.

In the case of `CC1=C(c2ccc(NC(=O)c3ccc(F)cc3F)nc2)CN(c2nnn(C)n2)CC1` [Compound 21, 2,4-difluoro-N-(5-(4-methyl-1-(2-methyl-2H-tetrazol-5-yl)-1,2,5,6-tetrahydropyridin-3-yl)pyridin-2-yl)benzamide], the solubility is given as 150 µM (≈ 61.7 µg/mL).

Staying with this series, now noted: simulated gastric fluid.
On to `CC(C)=CC(=O)Nc1ccc(C2=C(C)CCN(c3nnn(C)n3)C2)cn1` [Compound 28, 3-methyl-N-(5-(4-methyl-1-(2-methyl-2H-tetrazol-5-yl)-1,2,5,6-tetrahydropyridin-3-yl)pyridin-2-yl)but-2-enamide], for which the solubility was 50 µM (≈ 17.7 µg/mL). Still for that read-out and setting: with `CC1=C(c2cnc(NC(=O)c3c(F)cncc3F)cn2)CN(c2nccs2)CC1.Cl` [Compound 34, 3,5-difluoro-N-(5-(4-methyl-1-(thiazol-2-yl)-1,2,5,6-tetrahydropyridin-3-yl)pyrazin-2-yl)isonicotinamide hydrochloride] the figure was 25 µM; with `CC1=C(c2cnc(NC(=O)c3c(F)cccc3Cl)cn2)CN(c2nnn(C)n2)CC1` [Compound 35, 2-chloro-6-fluoro-N-(5-(4-methyl-1-(2-methyl-2H-tetrazol-5-yl)-1,2,5,6-tetrahydropyridin-3-yl)pyrazin-2-yl)benzamide], 25 µM (≈ 10.7 µg/mL).

The values are drawn from US20080207641A1 (Synta Pharmaceuticals Corp., priority 2006, published 2008).
